From the supplement of paper PMC10307832

Key:
Assay in all cases: relative viability (nuclei count vs DMSO), 5 days (fraction); higher = more cells survive
[1] = compound: C1CSC2=C(C(=O)N1)SC3=C2C=C(C=C3)O [kb NB 142-70] + CC(C)C[C@H](NC(=O)[C@H](Cc1ccccc1)NC(=O)c1cnccn1)B(O)O [Bortezomib] (partner 0.002 µM)
How it was run: (§1)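 Lung cancer cell lines in 1536-well plates were dosed by pin tool the day after seeding, either with one drug alone or with a fixed anchor-drug dose plus five library-drug doses (not always all listed) in √10 steps. After 5 days, cells were fixed and their nuclei stained in one step (final 0.05% Triton X-100, 1% formaldehyde, 1 ug/ml Hoechst), then counted on 4× images. Relative viability is the nuclei count in treated wells divided by that in vehicle wells. Values are medians of duplicate plates.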

[2] = compound: NCC(=O)Nc1ccc(-n2nc(C(F)(F)F)cc2-c2ccc3c(ccc4ccccc43)c2)cc1 + CC1(C)CCC(c2ccc(Cl)cc2)=C(CN2CCN(c3ccc(C(=O)NS(=O)(=O)c4ccc(N[C@H](CCN5CCOCC5)CSc5ccccc5)c(S(=O)(=O)C(F)(F)F)c4)cc3)CC2)C1 [Navitoclax] (partner 0.5 µM)
How it was run: as §1

[3] = compound: NCC(=O)Nc1ccc(-n2nc(C(F)(F)F)cc2-c2ccc3c(ccc4ccccc43)c2)cc1 + COc1cc2c(Oc3ccc(NC(=O)C4(C(=O)Nc5ccc(F)cc5)CC4)cc3F)ccnc2cc1OCCCN1CCOCC1 [Foretinib] (partner 0.25 µM)
How it was run: as §1

[4] = compound: NCC(=O)Nc1ccc(-n2nc(C(F)(F)F)cc2-c2ccc3c(ccc4ccccc43)c2)cc1 + Cc1cc(Nc2cc(N3CCN(C)CC3)nc(Sc3ccc(NC(=O)C4CC4)cc3)n2)n[nH]1 [Tozasertib] (partner 0.1 µM)
How it was run: as §1

**Q.** Which relative viability ([1]; first compound 0.1 µM) does the source give for UMC-11 here?
**A.** 0.667

**Q.** And the relative viability ([1]; first compound 1 µM)?
**A.** 0.806

**Q.** What about the relative viability ([1]; first compound 3.162 µM) of the same cell line?
**A.** 0.703

**Q.** And the relative viability ([2]; first compound 0.02 µM)?
**A.** 0.303

**Q.** And the relative viability ([2]; first compound 0.06325 µM)?
**A.** 0.349

**Q.** What about the relative viability ([2]; first compound 0.2 µM) of the same cell line?
**A.** 0.35

**Q.** And the relative viability ([2]; first compound 0.6325 µM)?
**A.** 0.304

**Q.** What about the relative viability ([2]; first compound 2 µM) of the same cell line?
**A.** 0.328

**Q.** What about the relative viability ([3]; first compound 0.02 µM) of the same cell line?
**A.** 0.974

**Q.** And the relative viability ([3]; first compound 0.06325 µM)?
**A.** 1.04

**Q.** What about the relative viability ([3]; first compound 0.2 µM) of the same cell line?
**A.** 1.06

**Q.** And the relative viability ([3]; first compound 0.6325 µM)?
**A.** 1.01

**Q.** What about the relative viability ([3]; first compound 2 µM) of the same cell line?
**A.** 1.11

**Q.** What about the relative viability ([4]; first compound 0.02 µM) of the same cell line?
**A.** 0.191

**Q.** And the relative viability ([4]; first compound 0.06325 µM)?
**A.** 0.21

**Q.** And the relative viability ([4]; first compound 0.2 µM)?
**A.** 0.218

**Q.** And the relative viability ([4]; first compound 0.6325 µM)?
**A.** 0.19

**Q.** And the relative viability ([4]; first compound 2 µM)?
**A.** 0.183
